Experimental data as given in patent US5010057A, “Renin-inhibiting peptides having an aminomethyl side chain” (Bayer Aktiengesellschaft, priority 1988, dated 1991).
Starred links: 1 amine or outer side, 2 acyl side, 3 side chain; linkers in the order of their positions; H or OH if unused. Non-standard residues stand in square brackets, D forms with d. Residues, ends and D or L forms follow the SMILES beside them. *: point of attachment. X2 = NCC(C(=O)[*:2])C(O)[C@H](CC1CCCCC1)N[*:1]; X1 = CC(C)C[C@H](N[*:1])C(O)C(CN)C(=O)[*:2]; NHCH2(2-pyridyl) = c1ccc(CN*)nc1; Boc = CC(C)(C)OC(=O)*

Target: T1, endogenous renin from human plasma (Homo sapiens, UniProt P00797)
T1 construct: endogenous renin from human plasma; from tissue; host or cells: pooled human plasma (EDTA)
T1 sequence (P00797 67-406): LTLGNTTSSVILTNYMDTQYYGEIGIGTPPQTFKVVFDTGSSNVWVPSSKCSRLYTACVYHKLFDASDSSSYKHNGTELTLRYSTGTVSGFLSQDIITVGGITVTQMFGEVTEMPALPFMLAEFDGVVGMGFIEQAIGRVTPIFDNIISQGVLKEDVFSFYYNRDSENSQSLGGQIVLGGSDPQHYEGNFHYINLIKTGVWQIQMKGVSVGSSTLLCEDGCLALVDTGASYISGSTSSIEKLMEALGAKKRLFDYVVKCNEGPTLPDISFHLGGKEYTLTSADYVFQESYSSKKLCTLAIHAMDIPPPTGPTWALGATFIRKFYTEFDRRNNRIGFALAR
Assay: In vitro test: inhibition of plasma renin activity (angiotensin I formation, radioimmunoassay)
Assay type: biochemical
Conditions: pooled human plasma, 37° C., pH 5.6; for IC50: 50% inhibition of plasma renin activity; for % Inhibition: plasma renin activity, test concentration not given
Protocol: The inhibitory strength of the peptides according to the invention against endogenous renin from human plasma is determined in vitro. Pooled human plasma is obtained with the addition of ethylenediamintetraacetic acid (EDTA) as an anticoagulant and stored at -20° C. The plasma renin activities (PRA) are determined as the rate of formation of angiotensin I from endogenous angiotensinogen and renin by incubation at 37° C. The reaction solution contains 150 μl of plasma, 3 μl of 6.6% strength 8-hydroxyquinoline sulphate solution, 3 μl of 10% strength dimercaprol solution and 144 μl of sodium phosphate buffer (0.2 M; 0.1% EDTA; pH 5.6) with or without the substances according to the invention in various concentrations. The angiotensin I formed per unit of time is determined using a radioimmunoassay (Sorin Biomedica, Italy). The percentage inhibition of the plasma renin activity is calculated by comparison of […]. The concentration range in which the substances claimed herein show a 50% inhibition of plasma renin activity is between 10^-4 to 10^-9 M.

| Structure (SMILES) | IC50 [µM] | % Inhibition [%] |
| --- | --- | --- |
| CC[C@H](C)[C@H](NC(=O)C(CN)C(O)[C@H](CC1CCCCC1)NC(=O)[C@H](Cc1c[nH]cn1)NC(=O)[C@H](Cc1ccccc1)NC(=O)[C@@H]1CCCN1C(=O)OC(C)(C)C)C(=O)NCc1ccccn1 (some centres unmarked) [Example 85] (Boc-PFH[X2]I-{NHCH2(2-pyridyl)}) | 0.24 | 100 |
| CC[C@H](C)[C@H](NC(=O)C(CN)C(O)[C@H](Cc1ccccc1)NC(=O)[C@H](Cc1c[nH]cn1)NC(=O)[C@H](Cc1ccccc1)NC(=O)OC(C)(C)C)C(=O)NCc1ccccn1 (some centres unmarked) [Example 79] | 2.5 | 95 |
| CC[C@H](C)[C@H](NC(=O)C1CN(Cc2ccccc2)OC1[C@H](Cc1ccccc1)NC(=O)[C@H](Cc1c[nH]cn1)NC(=O)[C@H](Cc1ccccc1)NC(=O)OC(C)(C)C)C(=O)OC (some centres unmarked) [Example 31] | – | 31 |
| CC[C@H](C)[C@H](NC(=O)C(CN)C(O)[C@H](Cc1ccccc1)NC(=O)[C@H](Cc1c[nH]cn1)NC(=O)[C@H](Cc1ccccc1)NC(=O)OC(C)(C)C)C(=O)OC (some centres unmarked) [Example 77] | 11 | 96 |
| CC[C@H](C)[C@H](NC(=O)C(CN)C(O)[C@H](CC(C)C)NC(=O)[C@H](Cc1c[nH]cn1)NC(=O)[C@H](Cc1ccccc1)NC(=O)OC(C)(C)C)C(=O)OC (some centres unmarked) [Example 94] | 3.7 | 100 |
| CC[C@H](C)[C@H](NC(=O)C1CN(Cc2ccccc2)OC1[C@H](CC1CCCCC1)NC(=O)[C@H](Cc1c[nH]cn1)NC(=O)[C@H](Cc1ccccc1)NC(=O)OC(C)(C)C)C(=O)OC (some centres unmarked) [Example 39] | – | 67 |
| CC[C@H](C)[C@H](NC(=O)C(CN)C(O)[C@H](CC(C)C)NC(=O)[C@H](Cc1c[nH]cn1)NC(=O)[C@H](Cc1ccccc1)NC(=O)[C@@H]1CCCN1C(=O)OC(C)(C)C)C(=O)NCc1ccccn1 (some centres unmarked) [Example 97] (Boc-PFH[X1]I-{NHCH2(2-pyridyl)}) | 0.022 | 100 |
| CC[C@H](C)[C@H](NC(=O)C(CN)C(O)[C@H](CC1CCCCC1)NC(=O)[C@H](Cc1c[nH]cn1)NC(=O)[C@H](Cc1ccccc1)NC(=O)OC(C)(C)C)C(=O)NCc1ccccn1 (some centres unmarked) [Example 84] | 0.092 | 100 |
| CC(C)CNC(=O)C(CN)C(O)[C@H](CC1CCCCC1)NC(=O)[C@H](Cc1c[nH]cn1)NC(=O)[C@H](Cc1ccccc1)NC(=O)OC(C)(C)C (some centres unmarked) [Example 86] | 9 | 92 |
| CC[C@H](C)[C@H](NC(=O)C(CN)C(O)[C@H](CC1CCCCC1)NC(=O)[C@H](Cc1c[nH]cn1)NC(=O)[C@H](Cc1ccccc1)NC(=O)OC(C)(C)C)C(=O)OC (some centres unmarked) [Example 82] | 1.4 | 89 |
| CC[C@H](C)[C@H](NC(=O)C(CN)C(O)[C@H](CC(C)C)NC(=O)[C@H](Cc1c[nH]cn1)NC(=O)[C@H](Cc1ccccc1)NC(=O)OC(C)(C)C)C(=O)NCc1ccccn1 (some centres unmarked) [Example 96] | 1 | 100 |
